Laboratory results as given in patent US8962825B2, “Hydroxamates as inhibitors of histone deacetylase” (GlaxoSmithKline Intellectual Property Development Limited, priority 2006, dated 2015).

What was measured:
[1] = target: T1, histone deacetylase activity (HeLa nuclear extract); assay: Histone deacetylase activity (Biomol Fluor de Lys HDAC fluorescent activity assay); format: biochemical; settings: Fluor de Lys substrate
T1 construct: Histone deacetylase activity from crude nuclear extract derived from HeLa cells was used for screening
Experimental: The ability of compounds to inhibit histone deacetylase activities was measured using the commercially available HDAC fluorescent activity assay from Biomol. In brief, the Fluor de Lys™ substrate, a lysine with an epsilon-amino acetylation, is incubated with the source of histone deacetylase activity (HeLa nuclear extract) in the presence or absence of inhibitor. Deacetylation of the substrate sensitises the substrate to Fluor de Lys™ developer, which generates a fluorophore. Thus, incubation of the substrate with a source of HDAC activity results in an increase in signal that is diminished in the presence of an HDAC inhibitor.
Data are expressed as a percentage of the control, measured in the absence of inhibitor, with background signal being subtracted from all samples, as follows: % activity=[(S^i−B)/(S^o−B)]×100 where S^i is the signal in the presence of substrate, enzyme and inhibitor, S^o is the signal in the presence of substrate, enzyme and the vehicle in which the inhibitor is dissolved, and B is the background signal measured in the absence of enzyme.
(§1) IC50 values were determined by non-linear regression analysis, after fitting the results of eight data points to the equation for sigmoidal dose response with variable slope (% activity against log concentration of Compound), using Graphpad Prism software.
Histone deacetylase activity from crude nuclear extract derived from HeLa cells was used for screening. The preparation, purchased from 4C (Seneffe, Belgium), was prepared from HeLa cells harvested whilst in exponential growth phase. The nuclear extract was prepared according to the methodology described by J. D. Dignam, Nucl. Acid. Res., 1983, 11, 1475-1489, snap frozen in liquid nitrogen and stored at −80° C. The final buffer composition was 20 mM Hepes, 100 mM KCl, 0.2 mM EDTA, 0.5 mM DTT, 0.2 mM PMSF and 20% (v/v) glycerol.

HeLa cells = assay: HeLa cell inhibition assay (sulphorhodamine B cell viability); format: cell-based; settings: 72 h, SRB
Experimental: HeLa cells growing in log phase were harvested and seeded at 1000 cells/well (200 μl final volume) into 96-well tissue culture plates. Following 24 h of cell growth cells were treated with Compounds (final concentration of 20 μM). Plates were then re-incubated for a further 72 h before a sulphorhodamine B (SRB) cell viability assay was conducted according to the methodology described by Skehan et al, J. Natl. Canc. Inst., 1990, 82, 1107-1112.
Data were expressed as a percentage inhibition of the control, measured in the absence of inhibitor, as follows:— % inhibition=100−[(S^i/S^o)×100] where S^i is the signal in the presence of inhibitor and S^o is the signal in the presence of DMSO.
as §1

HUT cells = assay: HUT cell inhibition assay (WST-1 cell viability); format: cell-based; settings: 72-96 h
Experimental: (§2) Cancer cell lines (U937 and HUT) growing in log phase were harvested and seeded at 1000-2000 cells/well (100 μl final volume) into 96-well tissue culture plates. Following 24 h of growth cells were treated with Compound. Plates were then re-incubated for a further 72-96 h before a WST-1 cell viability assay was conducted according to the suppliers (Roche Applied Science) instructions.
(§3) Data were expressed as a percentage inhibition of the control, measured in the absence of inhibitor, as follows: % inhibition=100−[(S^i/S^o)×100] where S^i is the signal in the presence of inhibitor and S^o is the signal in the presence of DMSO.
(§4) Dose response curves were generated from 8 concentrations (top final concentration 10 μM, with 3-fold dilutions), using 6 replicates.
(§5) IC50 values were determined by non-linear regression analysis, after fitting the results to the equation for sigmoidal dose response with variable slope (% activity against log concentration of Compound), using Graphpad Prism software.

U937 cells = assay: U937 cell inhibition assay (WST-1 cell viability); format: cell-based
Experimental: as §2, §3, §4, §5

SMILES | IC50 [1] [nM] | IC50 (HeLa cells) [nM] | IC50 (U937 cells; 72-96 h) [nM] | IC50 (HeLa cells; Homo sapiens) [nM] | IC50 (U937 cells; Homo sapiens, U-937, 72-96 h) [nM] | IC50 (HUT cells) [nM]
O=C(NO)c1cnc(N2CCC(CN[C@H](C(=O)O)C3CCCCC3)CC2)nc1 [Example 19, (2S)-cyclohexyl[({1-[5-(hydroxycarbamoyl)pyrimidin-2-yl]piperidin-4-yl}methyl)amino]acetic acid] | < 100 | – | – | – | – | –
CC(C)(C)OC[C@H](NCC1CCN(c2ncc(C(=O)NO)cn2)CC1)C(=O)OC1CCCC1 [Example 22] | – | – | – | 331 to 3300 | < 330 | < 330
O=C(NO)c1cnc(N2CCC(CN[C@H](C(=O)OC3CCCC3)c3ccccc3)CC2)nc1 [Example 20] | – | – | – | 331 to 3300 | < 330 | 331 to 3300
O=C(NO)c1cnc(N2CCC(CN[C@@H](CO)C(=O)OC3CCCC3)CC2)nc1 [Example 24] | – | – | – | 331 to 3300 | < 330 | < 330
CC(C)(C)OCC(NCC1C2CN(c3ncc(C(=O)NO)cn3)CC12)C(=O)OC1CCCC1 (centres unmarked) [Example 12] | – | – | – | 331 to 3300 | < 330 | 331 to 3300
CC(C)C[C@H](NC1CCN(c2ncc(C(=O)NO)cn2)CC1)C(=O)O [Example 2, N-{1-[5-(hydroxycarbamoyl)pyrimidin-2-yl]piperidin-4-yl}-L-leucine] | 101 to 1000 | – | – | – | – | –
O=C(NO)c1cnc(N2CC3C(CN[C@H](C(=O)O)C4CCCCC4)C3C2)nc1 (stereo partly drawn) [Example 15, (2S)-cyclohexyl[({3-[5-(hydroxycarbamoyl)pyrimidin-2-yl]-3-azabicyclo[3.1.0]hex-6-yl}methyl)amino]acetic acid] | 101 to 1000 | – | – | – | – | –
O=C(NO)c1cnc(N2CCC(N[C@@H](CO)C(=O)OC3CCCC3)CC2)nc1 [Example 9] | – | – | – | > 3300 | 331 to 3300 | 331 to 3300
O=C(NO)c1cnc(N2CCC(CN[C@H](C(=O)OC3CCCC3)c3cccc4ccccc34)CC2)nc1 [Example 26] | – | – | – | > 3300 | 331 to 3300 | 331 to 3300
CC(C)C[C@H](NCc1ccc(CNC2CCN(c3ncc(C(=O)NO)cn3)CC2)cc1)C(=O)O [Example 28, N-{-4-[({1-[5-(hydroxycarbamoyl)pyrimidin-2-yl]piperidin-4-yl}amino)methyl]benzyl}-L-leucine] | 101 to 1000 | – | – | – | – | –
O=C(NO)c1cnc(N2CCC(NCc3ccc(CN[C@H](C(=O)OC4CCCC4)c4ccccc4)cc3)CC2)nc1 [Example 30] | < 100 | – | – | – | – | –
CC(C)C[C@H](NCC1CCN(c2ncc(C(=O)NO)cn2)CC1)C(=O)OC1CCCC1 [Example 16] | – | – | – | 331 to 3300 | < 330 | < 330

More lines, main results first:

IC50 [1] [nM] | IC50 (HeLa cells) [nM] | IC50 (U937 cells; 72-96 h) [nM] | IC50 (HeLa cells; Homo sapiens) [nM] | IC50 (U937 cells; Homo sapiens, U-937, 72-96 h) [nM] | SMILES | IC50 (HUT cells) [nM]
< 100 | 331 to 3300 | < 330 | – | – | O=C(NO)c1cnc(N2CCC(NCc3ccc(CN[C@H](C(=O)OC4CCCC4)c4ccccc4)cc3)CC2)nc1 [Example 33] | < 330
> 1000 | – | – | – | – | CC(C)C[C@H](NC1CCN(c2ccc(C(=O)NO)cc2)CC1)C(=O)O [Example 49, N-{1-[4-(hydroxycarbamoyl)phenyl]piperidin-4-yl}-L-leucine] | –
< 100 | – | – | – | – | O=C(NO)c1cnc(N2CCC(CNCc3ccc(CN[C@H](C(=O)O)C4CCCCC4)cc3)CC2)nc1 [Example 39, (2S)-cyclohexyl[(4-{[({1-[5-(hydroxycarbamoyl)pyrimidin-2-yl]piperidin-4-yl}methyl)amino]methyl}benzyl)amino]acetic acid] | –
101 to 1000 | – | – | – | – | O=C(NO)c1cnc(N2CCC(NCc3ccc(CN[C@H](C(=O)OC4CCCC4)c4ccccc4)cc3)CC2)nc1 [Example 32] | –
101 to 1000 | 331 to 3300 | < 330 | – | – | O=C(NO)c1cnc(N2CCC(NCc3ccc(CN[C@H](C(=O)OC4CCCC4)c4ccccc4)cc3)CC2)nc1 [Example 31] | 331 to 3300
– | – | – | < 330 | < 330 | CC(C)C[C@H](NCc1ccc(CNCC2CCN(c3ncc(C(=O)NO)cn3)CC2)cc1)C(=O)OC1CCCC1 [Example 36] | < 330
– | – | – | < 330 | < 330 | O=C(NO)c1cnc(N2CCC(CNCc3ccc(CN[C@H](C(=O)OC4CCCC4)c4ccccc4)cc3)CC2)nc1 [Example 42] | < 330
> 1000 | – | – | – | 331 to 3300 | CC(C)C[C@H](NC1CCN(c2ccc(C(=O)NO)cc2)CC1)C(=O)OC1CCCC1 [Example 48, Cyclopentyl N-{1-[4-(hydroxycarbamoyl)phenyl]piperidin-4-yl}-L-leucinate] | > 3300
– | – | – | 331 to 3300 | < 330 | CC(C)(C)OC[C@H](NCc1ccc(CNCC2CCN(c3ncc(C(=O)NO)cn3)CC2)cc1)C(=O)OC1CCCC1 [Example 40] | < 330
> 1000 | – | – | – | 331 to 3300 | O=C(NO)c1ccc(N2CCC(CNCC3CCC(CN[C@H](C(=O)OC4CCCC4)C4CCCCC4)CC3)CC2)cc1 (stereo partly drawn) [Example 54, cyclopentyl (2S)-cyclohexyl{[(4-{[({1-[4-(hydroxycarbamoyl)phenyl]piperidin-4-yl}methyl)amino]methyl}cyclohexyl)methyl]amino}acetate] | 331 to 3300
101 to 1000 | – | – | – | 331 to 3300 | O=C(NO)c1cnc(N2CCC(CNCC3CCC(CN[C@H](C(=O)OC4CCCC4)C4CCCCC4)CC3)CC2)nc1 (stereo partly drawn) [Example 46, Cyclopentyl (2S)-cyclohexyl{[(4-{[({1-[5-(hydroxycarbamoyl)pyrimidin-2-yl]piperidin-4-yl}methyl)amino]methyl}cyclohexyl)methyl]amino}acetate] | 331 to 3300
< 100 | – | – | – | – | O=C(NO)c1cnc(N2CCC(CNCC3CCC(CN[C@H](C(=O)O)C4CCCCC4)CC3)CC2)nc1 (stereo partly drawn) [Example 47, (2S)-cyclohexyl{[(4-{[({1-[5-(hydroxycarbamoyl)pyrimidin-2-yl]piperidin-4-yl}methyl)amino]methyl}cyclohexyl)methyl]amino}acetic acid] | –
– | – | – | 331 to 3300 | < 330 | O=C(NO)c1cnc(N2CCC(CNCc3ccc(CN[C@@H](CO)C(=O)OC4CCCC4)cc3)CC2)nc1 [Example 44] | < 330
> 1000 | – | – | – | – | O=C(NO)c1ccc(N2CCC(CN[C@H](C(=O)O)C3CCCCC3)CC2)cc1 [Example 51, (2S)-cyclohexyl[({1-[4-(hydroxycarbamoyl)phenyl]piperidin-4-yl}methyl)amino]acetic acid] | –
> 1000 | – | – | – | – | O=C(NO)c1ccc(N2CCC(CNCC3CCC(CN[C@H](C(=O)O)C4CCCCC4)CC3)CC2)cc1 (stereo partly drawn) [Example 55, (2S)-cyclohexyl{[(4-{[({1-[4-(hydroxycarbamoyl)phenyl]piperidin-4-yl}methyl)amino]methyl}cyclohexyl)methyl]amino}acetic acid] | –
> 1000 | – | – | – | > 3300 | O=C(NO)c1ccc(N2CCC(CN[C@H](C(=O)OC3CCCC3)C3CCCCC3)CC2)cc1 [Example 50, Cyclopentyl (2S)-cyclohexyl[({1-[4-(hydroxycarbamoyl)phenyl]piperidin-4-yl}methyl)amino]acetate] | > 3300
< 100 | – | – | – | – | O=C(NO)c1cnc(N2CCC(NCc3ccc(CN[C@H](C(=O)OC4CCCC4)c4ccccc4)cc3)CC2)nc1 [Example 34] | –
> 1000 | – | – | – | 331 to 3300 | O=C(NO)c1ccc(N2CCC(CNCc3ccc(CN[C@H](C(=O)OC4CCCC4)C4CCCCC4)cc3)CC2)cc1 [Example 52, Cyclopentyl (2S)-cyclohexyl[(4-{[({1-[4-(hydroxycarbamoyl)phenyl]piperidin-4-yl}methyl)amino]methyl}benzyl)amino]acetate] | 331 to 3300
